Data on 6 compounds can be found in patent US9656968B2, “Pyrimidines as sodium channel blockers” (PURDUE PHARMA L.P, priority 2011, dated 2017).

As a reminder, the IC50 is the concentration that gives 50% inhibition.

Read-outs that look alike come from different tables or passages of the source.

For test [1], the target named is human Nav1.7 (Homo sapiens (Human), UniProt Q15858). The test can be described thus: FLIPR sodium dye assay for sodium channel blocking activity (recombinant Nav1.7/HEK293 cells). It counts as cell-based.
Test [2] deals with SNL-induced mechanical hyperalgesia. The test can be described thus: SNL-induced mechanical hyperalgesia model (paw pressure test, PWT). The class given is in vivo, rat. The conditions noted are these: dosed orally at 100 mg/kg, vehicle 0.5% methyl cellulose, one hour before testing. The method, then: In the Chung model, the spinal nerve ligation (SNL) model of neuropathic pain is used to produce mechanical hyperalgesia, thermal hyperalgesia, and tactile allodynia in rats. Surgery is performed under isoflurane/O2 inhalation anesthesia. Following induction of anesthesia a 3 cm incision is made and the left paraspinal muscles are separated from the spinous process at the L4-S2 levels. The L6 transverse process is carefully removed with a pair of small rongeurs to identify visually the L4-L6 spinal nerves. The left L5 (or L5 and L6) spinal nerve(s) is (are) isolated and tightly ligated with silk thread. […] The animals can also be assessed for response to noxious thermal stimuli or for tactile allodynia, as described below. […] Sensitivity to noxious mechanical stimuli was measured in animals using the paw pressure test to assess mechanical hyperalgesia. In rats, hind paw withdrawal thresholds (“PWT”), measured in grams, in response to a noxious mechanical stimulus were determined using an analgesymeter (Model 7200, commercially available from Ugo Basile of Italy), as described in Stein (Biochemistry & Behavior 31: 451-455 (1988)). […] PWT was determined once for each rat at each time point. PWT can be measured only in the injured paw, or in both the injured and non-injured paw. […]

Setting [3] is: recombinant human Nav1.7 in HEK293.

Sequence of human Nav1.7 (Q15858 other isoform, or with tags, fused parts or gaps): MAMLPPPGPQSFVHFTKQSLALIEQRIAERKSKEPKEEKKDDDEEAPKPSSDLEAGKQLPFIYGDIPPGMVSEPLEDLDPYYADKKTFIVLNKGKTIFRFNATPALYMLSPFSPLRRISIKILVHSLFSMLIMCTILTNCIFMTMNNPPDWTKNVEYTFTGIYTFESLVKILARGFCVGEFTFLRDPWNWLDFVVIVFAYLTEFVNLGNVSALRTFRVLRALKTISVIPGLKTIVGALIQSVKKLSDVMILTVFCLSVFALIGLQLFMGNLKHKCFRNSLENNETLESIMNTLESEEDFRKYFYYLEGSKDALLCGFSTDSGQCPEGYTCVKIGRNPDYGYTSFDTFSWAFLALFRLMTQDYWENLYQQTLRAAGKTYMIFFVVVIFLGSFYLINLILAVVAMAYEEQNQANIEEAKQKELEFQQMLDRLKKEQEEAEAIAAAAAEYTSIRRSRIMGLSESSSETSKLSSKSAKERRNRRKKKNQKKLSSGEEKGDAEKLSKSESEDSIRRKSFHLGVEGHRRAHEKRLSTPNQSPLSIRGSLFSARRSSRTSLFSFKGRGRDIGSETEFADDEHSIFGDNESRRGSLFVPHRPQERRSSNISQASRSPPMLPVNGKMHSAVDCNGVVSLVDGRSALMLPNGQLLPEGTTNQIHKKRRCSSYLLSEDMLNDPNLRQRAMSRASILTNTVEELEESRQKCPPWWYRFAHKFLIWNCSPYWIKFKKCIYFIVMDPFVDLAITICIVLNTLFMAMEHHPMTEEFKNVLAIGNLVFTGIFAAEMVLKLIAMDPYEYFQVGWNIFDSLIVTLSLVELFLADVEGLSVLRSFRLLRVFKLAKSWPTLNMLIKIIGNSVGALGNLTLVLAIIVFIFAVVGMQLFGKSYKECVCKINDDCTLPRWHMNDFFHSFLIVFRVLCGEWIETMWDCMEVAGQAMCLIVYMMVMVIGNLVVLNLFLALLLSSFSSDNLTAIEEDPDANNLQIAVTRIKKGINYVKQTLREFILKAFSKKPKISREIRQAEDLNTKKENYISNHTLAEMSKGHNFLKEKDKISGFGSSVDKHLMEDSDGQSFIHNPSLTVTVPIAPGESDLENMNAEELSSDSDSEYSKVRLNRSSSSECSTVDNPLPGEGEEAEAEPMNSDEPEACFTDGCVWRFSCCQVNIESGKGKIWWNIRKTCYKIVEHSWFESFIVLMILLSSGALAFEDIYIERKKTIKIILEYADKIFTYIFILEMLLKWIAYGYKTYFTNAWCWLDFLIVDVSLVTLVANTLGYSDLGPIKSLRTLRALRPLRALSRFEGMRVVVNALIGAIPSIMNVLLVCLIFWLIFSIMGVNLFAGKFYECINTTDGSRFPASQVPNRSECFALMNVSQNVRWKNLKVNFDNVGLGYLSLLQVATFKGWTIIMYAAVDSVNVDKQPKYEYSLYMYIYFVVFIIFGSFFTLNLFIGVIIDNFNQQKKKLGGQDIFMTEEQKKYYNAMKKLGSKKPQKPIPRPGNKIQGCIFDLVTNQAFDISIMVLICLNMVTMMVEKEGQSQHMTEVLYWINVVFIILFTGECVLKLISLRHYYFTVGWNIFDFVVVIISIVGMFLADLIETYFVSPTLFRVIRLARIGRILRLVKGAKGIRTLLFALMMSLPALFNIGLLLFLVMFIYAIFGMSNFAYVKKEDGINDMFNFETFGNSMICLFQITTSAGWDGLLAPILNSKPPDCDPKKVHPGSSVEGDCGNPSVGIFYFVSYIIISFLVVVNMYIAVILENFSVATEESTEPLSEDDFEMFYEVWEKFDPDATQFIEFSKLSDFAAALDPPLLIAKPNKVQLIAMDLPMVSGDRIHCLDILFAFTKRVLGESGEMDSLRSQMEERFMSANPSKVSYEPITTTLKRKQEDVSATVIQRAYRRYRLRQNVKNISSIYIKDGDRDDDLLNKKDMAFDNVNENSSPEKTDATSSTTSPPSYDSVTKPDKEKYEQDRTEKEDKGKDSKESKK

Regarding `C[C@H](Oc1cc(C(N)=O)nc(-c2ccc(Oc3ccc(Cl)cc3F)cc2)n1)C(N)=O` [Cpd No. 93], the IC50 in test [1] (setting [3]) stood at 0.083 µM.
`C[C@H](Oc1cc(C(N)=O)nc(-c2ccc(Oc3cc(Cl)ccc3F)cc2)n1)C(N)=O` [Cpd No. 92]: the IC50 in test [1] (setting [3]) is 0.27 µM.
For the compound `C[C@H](Nc1cc(C(N)=O)nc(-c2ccc(Oc3ccc(OC(F)(F)F)cc3)cc2)n1)C(N)=O` [compound 84, (S)-6-((1-amino-1-oxopropan-2-yl)amino)-2-(4-(4-(trifluoromethoxy)phenoxy)phenyl)pyrimidine-4-carboxamide], the “SNL-induced mechanical hyperalgesia in rats” value in test [2] is recorded as “reduced SNL-induced mechanical hyperalgesia”.
On to `NC(=O)c1cc(N[C@H]2CCNC2=O)nc(-c2ccc(Oc3ccc(C(F)(F)F)cn3)cc2)n1` [compound 99, (S)-6-((2-oxopyrrolidin-3-yl)amino)-2-(4-((5-(trifluoromethyl)pyridin-2-yl)oxy)phenyl)pyrimidine-4-carboxamide], for which, in test [2], the “SNL-induced mechanical hyperalgesia in rats” value was “reduced SNL-induced mechanical hyperalgesia”.
Turning to `C[C@H](Nc1cc(C(N)=O)nc(-c2ccc(Oc3ccc(F)cc3)c(CO)c2)n1)C(N)=O` [compound 97, (S)-6-((1-amino-1-oxopropan-2-yl)amino)-2-(4-(4-fluorophenoxy)-3-(hydroxymethyl)phenyl)pyrimidine-4-carboxamide], the IC50 in test [1] is 5.72 µM.
Turning to `C[C@H](Nc1cc(C(N)=O)nc(-c2ccc(Oc3cc(C(F)(F)F)ccn3)cc2)n1)C(N)=O` [compound 57], the IC50 in test [1] (setting [3]) came out at 3.25 µM.
